The nature of series [1]: Effective permeability of the compound in pH 7.4 at 25 uM incubated for 4 hrs by PAMPA-BBB assay. Type of series: ADME. The settings on record: read-out: Peff. On the technique in general: In PAMPA a lipid-coated filter parts donor from acceptor wells.
Series [2] can be described thus: Octanol/water partition coefficient, logP of compound at 10 mg incubated for 24 hrs by ICP-MS analysis. Type of series: physicochemical.
Series [3] in a line: Biodistribution in blood of BALB/c nude mouse xenografted with human U-87 MG cells assessed as boron concentration at 500 mg/kg, ip measured 4 hrs post injection by ICP-MS analysis. As to conditions: in vivo; call rule not given here. Type of series: ADME, organism-based. In general terms: Xenograft models place foreign cells or tissue in a host animal.
Series [4] is described as follows: Cytotoxicity against human U-87 MG cells assessed as cell survival at 100 uM incubated for 22 hrs by cell counting kit analysis relative to control. Type of series: functional, U-87MG ATCC. The settings on record: read-out: Survival. On the technique in general: Formazan colour is commonly taken as a measure of viable cells.
A short description of series [5]: Cytotoxicity against HEK293 cells assessed as cell survival at upto 100 uM incubated for 22 hrs by cell counting kit analysis relative to control. Type of series: toxicity, cell-based. The settings on record: human, read-out: Survival.
Series [6] relates to HEK293. Put plainly: Cytotoxicity against HEK293 cells assessed as reduction in cell survival at higher concentrations incubated for 22 hrs by cell counting kit analysis. As to conditions: human, hek293, 22 h. The class given is toxicity, cell-based.
Series [7] can be described thus: Cytotoxicity against human U-87 MG cells incubated for 22 hrs by cell counting kit analysis. Type of series: functional, cell-based, U-87MG ATCC.
Series [8] in a line: Cytotoxicity against HEK293 cells incubated for 22 hrs by cell counting kit analysis. The class given is toxicity, cell-based. As to conditions: human.

The results in this text go back to ChEMBL document CHEMBL5113544, “Development of Brain-Tumor-Targeted Benzothiazole-Based Boron Complex for Boron Neutron Capture Therapy” (ACS Med Chem Lett, 2022).

Where only a bound is given, the exact number is not on record here.

By logP is commonly meant the decadic logarithm of the partition coefficient of the neutral form, usually between octanol and water. Read a high logP as higher lipophilicity. One may read the IC50 as the concentration needed to halve the response being measured. A lower IC50 goes with greater potency in that assay.

`OB(O)c1ccc(-c2nc3ccccc3s2)cc1`: the Papp at 4 h, 25 µM in series [1] is 59.8 ×10⁻⁶ cm/s. This molecule also gave a log partition coefficient (logP) at 24 h in series [2] of 0.32. Further, the Drug uptake result in series [3] was “Active”. In addition, the viability at 100 µM in series [4] was under 43%. Moreover, the viability at 22 h, up to 100 µM in series [5] was over 95%. Further, the Activity result in series [6] is recorded as “Toxic”. The same molecule showed an IC50 in series [7] of 112 µM. For the same molecule, half-maximal inhibition in series [8] (IC50 at 22 h) required 265 µM.
